SMILES strings stand for the structures. Like-named read-outs stand apart in the source and are kept apart here.

These results are taken from patent US11859248B2, “Nucleic acid modification and identification method” (IMBA—INSTITUT FÜR MOLEKULARE BIOTECHNOLOGIE GMBH, priority 2017, dated 2024).

The subject of series [1] is reverse transcriptases (Superscript II, Superscript III, Quant-seq RT). Description: Reverse transcription of synthetic thiol-nucleotide-containing RNA followed by high-throughput sequencing. It is filed as biochemical. As to conditions: after iodoacetamide-treatment. The method, then:
Primer extension assays were essentially performed as described previously by Nilsen et al. (Cold Spring Harb Protoc. 2013, 1182-1185). Briefly, template RNA oligonucleotides (5L-let-7-3L or 5L-let-7-s^4Up9-3L; Dharmacon; see Table for sequences) were deprotected according to the instructions of the manufacturer and purified by denaturing polyacrylamide gel-elution. 100 μM purified RNA oligonucleotides were treated with 10 mM iodoacetamide (+IAA) or EtOH (−IAA) in standard reaction conditions (50% DMSO, 50 mM sodiumphosphate buffer, pH 8) for 15 min at 50° C. The reaction was stopped by addition of 20 mM DTT, followed by ethanol precipitation. RT primer (see Table for sequence) was 5′ radiolabeled using γ-^32P-ATP (Perkin-Elmer) and T4-polynucleotide kinase (NEB), followed by denaturing polyacrylamide gel-purification. 640 nM γ-^32P-RT primer was annealed to 400 nM 5L-let-7-3L or 5L-let-7-s^4Up9-3L in 2× annealing buffer (500 mM KCl, 50 mM Tris pH 8.3) in a PCR machine (3 min 95° C., 30 sec 85° C. Ramp 0.5° C./s, 5 min 25° C. Ramp 0.1° C./s). Reverse transcription was performed using Superscript II (Invitrogen), Superscript III (Invitrogen), or Quant-seq RT (Lexogen) as recommended by the manufacturer. For dideoxynucleotide reactions, a final concentration of 500 μM ddNTP (as indicated) was added to RT reactions. Upon completion, RT reactions were resuspended in formamide loading buffer (Gel loading buffer II, Thermo Fisher Scientific) and subjected to 12.5% denaturing polyacrylamide gel electrophoresis. Gels were dried, exposed to storage phosphor screen (PerkinElmer), imaged on a Typhoon TRIO variable mode imager (Amersham Biosciences), and quantified using ImageQuant TL v7.0 (GE Healthcare). […]
For sequencing analysis of synthetic RNA samples (FIG. 5) barcoded libraries were demultiplexed using Picard Tools BamIndexDecoder v1.13 allowing 0 mismatches in the barcode. […] Remaining aligned reads were converted to pileup format. […] Output table was analyzed and plotted in Excel v15.22 (Microsoft) and Prism v7.0a (GraphPad). […]

In series [2] the test system is mES cells. Description: Cell viability assay (CellTiter-Glo) of mES cells cultured with s^4U. It is filed as cell-based, mouse. Conditions: for EC50: Mus musculus, read-out: EC50 of compromised cell viability. The procedure:
5000 mES cells were seeded per 96 well the day before the experiment. Medium containing different concentrations of s^4U (as indicated) was added to the cells for 12 h or 24 h. Cell viability was assessed by CellTiter-Glo® Luminescent Cell Viability Assay (Promega) according to the instructions of the manufacturer. Luminescent signal was measured on Synergy using Gen5 Software (v2.09.1).
We tested the ability of mouse embryonic stem cells to tolerate s^4U metabolic RNA-labeling after 12 h or 24 h at varying s^4U concentrations (FIG. 6A). […] Under these conditions, we detected a steady increase in s^4U-incorporation in total RNA preparation 3 h, 6 h, 12 h, and 24 h post labeling, as well as a steady decrease 3 h, 6 h, 12 h, and 24 h after uridine chase (FIG. 6B). As expected, the incorporation follows a single exponential kinetics, with a maximum average incorporation of 1.78% s^4U, corresponding to one s^4U incorporation in every 56 uridines in total RNA (FIG. 6C). These experiments establish s^4U-labeling conditions in mES cells, which can be employed to measure RNA biogenesis and turnover rates under unperturbed conditions.
Background: In ATP-based viability assays light output follows the ATP content of the culture.

For `O=c1[nH]c(=S)ccn1[C@@H]1O[C@H](CO)[C@@H](O)[C@H]1O` [s^4U, 4-thiouridine], the “increase in T to C conversion” value in series [1] turned out to be 8.5 fold. The “mutation rate (T to C)” value in series [1] (all tested RTs) was “more than 0.94”. For the same compound, the “effect on cell viability” value in series [2] (100 μM s^4U) is recorded as “did not severely affect cell viability”. For the same compound, the EC50 (commonly the concentration giving half of the maximal effect) in series [2] (12 h labeling) was 3100 µM; in series [2] (24 h labeling), 380 µM.
